From patent publication EP0221719A2, “Novel cephalosporin derivatives, processes for their preparation and pharmaceutical compositions containing them” (BIOGAL GYOGYSZERGYAR, priority 1985, dated 1987)
In brackets after ≈: the same amount, converted by molar mass. Where a name gives a salt, the structure may show the parent alone. Read-outs that look alike come from different tables or passages of the source.

What was measured:
[1] = system: Salmonella typhi murium and Proteus vulgaris; assay: In vivo effectivity in artificially infected mice (protection test); conditions: for living animal / group 1st day / living animal / group 3rd day: groups of 5 infected mice; for ED50: sc
[2] = system: Streptococcus haemolyticus Pneumo; assay: MIC determination (antibacterial activity in vitro); assay type: cell-based; conditions: after 24 hours
[3] = system: Bacillus subtilis ATCC 6633; assay: as above; assay type: cell-based; conditions: ATCC6633, after 24 hours
[4] = system: Klebsiella sp. ATCC 10031; assay: as above; assay type: cell-based; conditions: ATCC10031, after 24 hours
[5] = system: Staphylococcus aureus 1110; assay: as above; assay type: cell-based; conditions: after 24 hours
[6] = system: Pseudomonas pyocyanea NTCT 10.490; assay: as above; assay type: cell-based; conditions: Pseudomonas aeruginosa, NTCT10.490, after 24 hours
Procedure: The MIC values expressed in mcg./mi. of SZMFO 110 after 24 hours are contained in Table 1.

[7] = system: Staphylococcus aureus Smith; assay: as above; assay type: cell-based; conditions: after 24 hours
[8] = system: Escherichia coli poliresistens; assay: as above; assay type: cell-based; conditions: 24 h
[9] = system: Staphylococcus epidermidis A CC I-12228; assay: as above; assay type: cell-based; conditions: ACCI12228, after 24 hours
Pseudomonas aeruginosa = assay: microbe, parasite or virus in culture; conditions: 24 h
Escherichia coli 6R = assay: MIC determination (antibacterial activity in vitro); assay type: cell-based; conditions: 24 h
Staphylococcus aureus 53 = assay: as above; assay type: cell-based; conditions: after 24 hours
[10] = system: Streptococcus haemolyticus A118; assay: as above; assay type: cell-based; conditions: after 24 hours
Escherichia coli K12 = assay: as above; assay type: cell-based; conditions: after 24 hours
[11] = system: Clostridium perfringens Cp.; assay: microbe, parasite or virus in culture; assay type: cell-based; conditions: 24 h
Salmonella typhi murium = assay: MIC determination (antibacterial activity in vitro); assay type: cell-based; conditions: Salmonella enterica, 24 h
Proteus vulgaris XL = assay: as above; assay type: cell-based; conditions: after 24 hours
Escherichia coli R-222 = assay: as above; assay type: cell-based; conditions: R222, 24 h
Shigella sonnei = assay: as above; assay type: cell-based; conditions: after 24 hours
[12] = system: Streptococcus haemolyticus Robb; assay: as above; assay type: cell-based; conditions: after 24 hours
Escherichia coli R-15 = assay: as above; assay type: cell-based; conditions: R15, after 24 hours

Row | SMILES | living animal / group 1st day ([1]; 0.2 mg./kg. subcutaneously) | living animal / group 3rd day ([1]; 0.2 mg./kg. subcutaneously) | living animal / group 1st day ([1]; 1 mg./kg. subcutaneously) | living animal / group 3rd day ([1]; 1 mg./kg. subcutaneously) | living animal / group 1st day ([1]; 5 mg./kg. subcutaneously) | living animal / group 3rd day ([1]; 5 mg./kg. subcutaneously) | living animal / group 1st day ([1]; 25 mg./kg. subcutaneously) | living animal / group 3rd day ([1]; 25 mg./kg. subcutaneously) | living animal / group 1st day ([1]; 100 mg./kg. subcutaneously) | living animal / group 3rd day ([1]; 100 mg./kg. subcutaneously) | ED50 ([1]; 24 h, read-out: ED50 1st day) [mg/kg] | ED50 ([1]; 72 h, read-out: ED50 3rd day) [mg/kg] | MIC (Pseudomonas aeruginosa) [µg/mL] | other results
1 | CON=C(C(=O)NC1C(=O)N2C(C(=O)O)=C(CSc3nnc(S)s3)CSC12)c1csc(N)n1 (stereo not drawn) [SZMFO 110, 7β-[2-(2-aminothiazol-4-yl)-(Z)-2-methoxyimino-acetamido]-3-[(2-mercapto-1.3.4-thiadiazol-5-yl)thiomethyl]-ceph-3-em-4-carboxylic acid] | 0 | 0 | 4 | 4 | 5 | 4 | 5 | 5 | 5 | 4 | 0.62 | 0.62 | 0.31 (≈ 0.568 µM) | MIC [2]: 0.03 µg/mL (≈ 0.055 µM); MIC [3]: 0.08 µg/mL (≈ 0.147 µM); MIC [4]: 0.007 µg/mL (≈ 0.0128 µM); MIC [5]: 6.2 µg/mL (≈ 11.4 µM); MIC [6]: 0.31 µg/mL (≈ 0.568 µM); MIC [7]: 1.25 µg/mL (≈ 2.29 µM); MIC [8]: 0.16 µg/mL (≈ 0.293 µM); MIC [9]: 0.6 µg/mL (≈ 1.1 µM); MIC (Escherichia coli 6R): 0.25 µg/mL (≈ 0.458 µM); MIC (Staphylococcus aureus 53): 1.6 µg/mL (≈ 2.93 µM); MIC [10]: 0.03 µg/mL (≈ 0.055 µM); MIC (Escherichia coli K12): 0.03 µg/mL (≈ 0.055 µM); MIC [11]: 0.004 µg/mL (≈ 0.00733 µM); MIC (Salmonella typhi murium): 0.06 µg/mL (≈ 0.11 µM); MIC (Proteus vulgaris XL): 0.007 µg/mL (≈ 0.0128 µM); MIC (Escherichia coli R-222): 0.03 µg/mL (≈ 0.055 µM); MIC (Shigella sonnei): 0.06 µg/mL (≈ 0.11 µM); MIC [12]: 0.03 µg/mL (≈ 0.055 µM); MIC (Escherichia coli R-15): 0.16 µg/mL (≈ 0.293 µM)
2 | CCN1CCN(C(=O)N[C@@H](C(=O)N[C@@H]2C(=O)N3C(C(=O)O)=C(CSc4nnnn4C)CS[C@H]23)c2ccc(O)cc2)C(=O)C1=O [Cefoperazone, 7-[D-(-)-α-(4-ethyl-2,3-dioxo-1-piperazinecarboxamido)-α-(4-hydroxyphenyl)-acetamido]-3-[[(1-methyl-1H-tetranol-5-yl)thio]methyl]-ceph-3-em-4-carboxylic acid, reference compound] | 1 | 1 | 4 | 1 | 5 | 3 | 4 | 4 | 5 | 4 | 0.44 | 3.7 | 8 (≈ 12.4 µM) | –
3 | CO/N=C(\C(=O)N[C@@H]1C(=O)N2C(C(=O)O)=CCS[C@H]12)c1csc(N)n1 [Ceftizoxime, (6R,7R)-7-/2-(2-amino-4-thiazolyl)glyoxylamido/-8--oxo-5-thia-l-azabicyclo/4.2.0/oct-2-ene-2-carboxylic acid 7^2-(Z)-(0-methyloxime)] | – | – | – | – | – | – | – | – | – | – | – | – | 64 (≈ 167 µM) | –
4 | CC(C)(ON=C(C(=O)NC1C(=O)N2C(C(=O)[O-])=C(C[n+]3ccccc3)CSC12)c1csc(N)n1)C(=O)O [Ceftazimide, 1-//(6R,7R)-7-/2-(2-amino-4-thiazolyl)glyoxylamido/--2-carboxy-8-oxo-5-thia-1-azabicyclo/4.2.0/oct-2-ene--3-yl/methyl/pyridinium hydroxide inner salt 7^2-(Z)-/0-(1-carboxy-1-methylethyl)oxime/] | – | – | – | – | – | – | – | – | – | – | – | – | 4 | –
5 | CO/N=C(\C(=O)N[C@@H]1C(=O)N2C(C(=O)O)=C(COC(C)=O)CS[C@H]12)c1csc(N)n1 [Cefotaxime, 7-[2-(2-amino-4-thiazolyl)-2-methoxy-iminoacetamido]-cephalosporanic acid] | – | – | – | – | – | – | – | – | – | – | – | – | 32 (≈ 70.3 µM) | –
6 | CO/N=C(\C(=O)N[C@@H]1C(=O)N2C(C(=O)O)=C(CSc3nnnn3C)CS[C@H]12)c1csc(N)n1 [Cefmenoxime, (6R,7R)-7-/2-(2-amino-4-thiazolyl)glyoxylamido/-3-//(1-methyl-1H-tetrazol-5-yl)thio/methyl/-8-oxo-5-thia--1-azabicyclo/4.2.0/oct-2-ene-2-carboxylic acid 7^2-(Z)-(O-methyloxime)] | – | – | – | – | – | – | – | – | – | – | – | – | 64 (≈ 125 µM) | –
